Patent US11970436B2, “Pharmaceutical compositions comprising monoterpenes” (NEONC Technologies, Inc., priority 2010, dated 2024)

What was measured:
cancer stem cells USC-04 = assay: MTT cytotoxicity assay on cancer stem cells USC-04; assay type: cell-based; conditions: Homo sapiens
Excerpt: (§1) Verapamil is used as an inhibitor of drug efflux pump proteins such as P-glycoprotein.

[1] = system: glioblastoma cancer stem cell line USC-02; assay: MTT assay on glioblastoma cancer stem cells USC-02; assay type: cell-based, human
Excerpt: as §1

[2] = system: normal stem cells mSVZ (mouse SVZ stem cells), brain endothelial cells (BECs) and astrocytes; assay: Comparison of POH IC50 values, normal cells; assay type: cell-based; conditions: FIG. 18, normal cells
[3] = system: glioblastoma cancer stem cells (USC04); assay: Sphere formation assay (SFA); assay type: cell-based, human; conditions: POH 0-1.5 mM for 6 days
Procedure: USC04 cells were incubated with varying concentrations of POH (0-1.5 mM) for 6 days.

[4] = system: glioma tumor cells (U251 cells); assay: MTT cytotoxicity assay, glioma cells versus normal brain cells; assay type: cell-based, human; conditions: FIG. 14
Excerpt: as §1

H-Ras [5] = assay: H-ras production in glioblastoma cancer stem cells; assay type: cell-based, human; conditions: USC-02 and USC-04, POH for 24 hours
Procedure: Two glioblastoma cancer stem cell lines (USC-02, USC-04) were treated by POH for 24 hours. USC-02 and USC-04 are two independent primary cancer stem cell lines isolated from glioblastoma tissue from two different patients.

interleukin 8 (IL8) = assay: ELISA for IL-8 secretion; assay type: cell-based; conditions: U87 human glioma cells, POH for 48 hours
Procedure: (§2) ELISA was performed after cells were treated with POH for 48 hours.
(§3) Pyrko et al. The unfolded protein response regulator GRP78/BiP as a novel target for increasing chemosensitivity in malignant gliomas. Cancer Res 67(20):9809-16, 2007. […] In addition, it may overcome the immunosuppressive functions of transforming growth factor beta-2 (TGFβ-2) secreted by glioma cells.

[6] = system: recurrent malignant gliomas; conditions: intranasal delivery, patients with recurrent malignant gliomas; cited from earlier work
U251 human glioma cells [7] = assay: MTT cytotoxicity assay, POH combined with Nelfinavir; assay type: cell-based; conditions: FIG. 5B
Excerpt: (§4) Pyrko et al. HIV-1 protease inhibitors nelfinavir and atazanavir induce malignant glioma death by triggering endoplasmic reticulum stress. Cancer Res 67(22): 10920-10928, 2007.

U251 human glioma cells [8] = assay: MTT cytotoxicity assay, POH combined with TMZ; assay type: cell-based; conditions: POH and TMZ, FIG. 5C
Procedure: (§5) Cytotoxicity assays were carried out after cells were treated with POH in combination with temozolomide (TMZ), the standard alkylating agent used in the treatment of malignant gliomas. […] This effect was also seen in cell lines that were TMZ resistant.

[9] = system: U251, LN229 and U87 human glioma cells; assay: MTT cytotoxicity assay, POH combined with DMC; assay type: cell-based; conditions: MTT and colony formation assays, FIG. 5A
Excerpt: as §4

[10] = system: brain endothelial cells (BECs); assay: Transepithelial electrical resistance (TEER), in vitro blood brain barrier model; assay type: cell-based; conditions: 0.03% POH for 20 hours, compared to medium only, 0.01% and 0.02% POH
Procedure: In these experiments, brain endothelial cells (BECs) were used as an in vitro model of blood brain barrier. The increase in TEER in each group over time corresponds to increased confluency of the cells in culture. TEER decreased when cells were treated by 0.03% POH for 20 hours compared to medium only, 0.01% POH treatment, and 0.02% POH treatment.
Transepithelial electrical resistance (TEER) assays were performed assessing the ability of POH to increase paracellular permeability (FIG. 7A). In these experiments, brain endothelial cells (BECs) were used as an in vitro blood brain barrier model. […] TEER decreased when cells were treated by 0.03% POH for 20 hours compared to medium only, 0.01% POH treatment, and 0.02% POH treatment. The increase in TEER in each group over time corresponds to increased confluency of the cells in culture.

[11] = system: cell lines that were TMZ resistant; assay: Cytotoxicity assay, POH combined with TMZ, resistant lines; assay type: cell-based; conditions: POH and TMZ
Procedure: as §5

glioma cells = assay: Apoptosis / cell killing by rolipram with or without POH; assay type: cell-based
Procedure: When cells were treated with rolipram alone, apoptosis occurred only after 48 hours post the addition of high concentrations of rolipram (e.g., 1 mM). Synergistic cell killing by rolipram and POH occurred within a much shorter time period, i.e., 6 hours after the addition of the drugs. Chen et al. The type IV phosphodiesterase inhibitor rolipram induces expression of the cell cycle inhibitors p21 Cip 1 and p27Kip1, resulting in growth inhibition, increased differentiation, and subsequent apoptosis of malignant A-12 glioma cells. Cancer Biology & Therapy, Vol. 1:3, 268-276, 2003.

glioma = assay: Boyden matrigel chamber invasion; assay type: cell-based
[12] = oral, cited from earlier work
[13] = system: CCAAT/enhancer binding protein (CHOP); assay: Western blot apoptosis marker CHOP; assay type: cell-based, human; conditions: 20 hours
Procedure: (§6) The treatments for different lanes of the Western blot are as follows: 1: No treatment; 2: 0.5 mM purified POH; 3: 1.5 mM purified POH; 4: 0.5 mM Sigma POH; 5: 1.5 mM Sigma POH; 6: 0.5 mM Wako POH; 7: 1.5 mM Wako POH; 8: Positive Control (DMC 40uM). Sigma POH is the POH purchased from Sigma Chemicals. Wako POH is the POH purchased from […]. Cells were treated with different agents or mock treated for 20 hours before being lysed.
(§7) Sigma POH is the POH purchased from Sigma Chemicals.
(§8) GRP78 is an anti-apoptotic protein the level of which is increased in response to stress. CHOP is a proapoptotic protein signaling for apoptosis. Pyrko et al. The unfolded protein response regulator GRP78/BiP as a novel target for increasing chemosensitivity in malignant gliomas. Cancer Research 67(20):9809-16, 2007.
(§9) U251 TMZ-sensitive and TMZ-resistant (U251/TR1, U251/TR2) cells were treated with Sigma POH (1.5 mM) or purified POH (1.5 mM) for 20 hours, then Western blot was performed.

VEGF = assay: ELISA for VEGF secretion; assay type: cell-based; conditions: U87 human glioma cells, POH for 48 hours
Procedure: as §2, §3

[14] = system: glucose-regulated protein 78 (GRP78); assay: Western blot ER stress marker GRP78; assay type: cell-based, human; conditions: 20 hours
Procedure: as §6, §7, §8, §9

H-Ras [15] = assay: Western blot H-Ras expression; assay type: cell-based, human; conditions: U251 glioma cells, 24 hours
Procedure: (§10) U251 glioma cells were treated with Sigma POH or purified POH for 24 hours, then Western blot was performed.

K-Ras = assay: Western blot K-Ras expression; assay type: cell-based, human; conditions: U251 glioma cells, 24 hours
Procedure: as §10

[16] = system: intracranial glioma model; assay: Intracranial glioma model in athymic nu/nu mice, survival; assay type: in vivo; conditions: mice treated with TMZ; untreated about four weeks
Procedure: Male athymic nu/nu mice (6-8 weeks old) will be employed for this research. Rodent subcutaneous/intracranial glioma model can be established as follows. Six to eight week old athymic nu/nu mice will be anesthesized with intraperitoneal injections of ketamine (80 mg/kg) and xylazine (10 mg/kg). For the intracranial glioma model, the mice are placed into a stereotactic head frame (Harvard Apparatus), and local anesthetic (0.2 cc of 0.25% xylocaine) is injected into the right frontal scalp. A knife blade is used to make a small incision, and a drill bit is used to make a small opening in the right frontal skull at the level of the coronal suture. Glioma cells (1×10^5 cells/10 μl), for example, U-87 human glioma cells, will be loaded into a calibrated Hamilton syringe. The needle tip will be placed precisely into the right frontal lobe of the […], and cells will be slowly injected using a control push from the Hamilton syringe. After the injection is finished, the syringe and needle will be removed, and the wound closed.
Brains will be harvested, and tumor size determined. Survival curves will be constructed by following the mice until they develop neurological deficits. Our experience has been that survival is about four weeks after implantation for untreated mice, and up to 8 weeks for mice treated with TMZ.

[17] = system: U251 human malignant glioma cells; assay: Colony formation assay, POH plus radiation; assay type: cell-based; conditions: FIG. 4B
Procedure: (§11) Cells were treated with 325 μM or 650 μM POH prior to radiation at the doses of 2, 5 or 10 Grays (Gy). […] This was confirmed for another human glioma cell line (U251) and also for a melanoma cell line (B16-F1) (FIG. 4B).

human A172 glioma cells = assay: Colony formation assay, POH plus radiation; assay type: cell-based; conditions: 325 μM or 650 μM POH prior to radiation at 2, 5 or 10 Gy
Procedure: as §11

B16-F1 melanoma cells = assay: Colony formation assay, POH plus radiation; assay type: cell-based; conditions: FIG. 4B
Procedure: as §11

[18] = system: U251 temozolomide-resistant cells (U251/TR1); assay: Colony formation assay on temozolomide-resistant U251; assay type: cell-based, human; conditions: FIG. 3C
[19] = system: U251 temozolomide-resistant cells (U251/TR1 and U251/TR2); assay type: cell-based, human
Excerpt: (§12) U251/TR1 and U251/TR2 refer to two temozolomide-resistant U251 cell lines.

[20] = system: U251, U87, LN299 and A172 human glioma cells; assay type: cell-based
[21] = system: U251 human glioma cells (temozolomide-sensitive); assay type: cell-based
Excerpt: as §12

[22] = U251 TMZ-sensitive and TMZ-resistant (U251/TR1, U251/TR2) cells, 1.5 mM

SMILES: Cc1ccc(C)c(-c2cc(C(F)(F)F)nn2-c2ccc(S(N)(=O)=O)cc2)c1 [DMC, dimethyl-celecoxib, reference compound]
- EC50 (cancer stem cells USC-04; FIG. 15B): 78 µM

SMILES: C=C(C)[C@@H]1CC=C(CO)CC1 [POH, perillyl alcohol]
- POH IC50 compared among cell lines ([1]; FIG. 18, USC-02 cells): most sensitive
- sensitivity of USC-02 to POH relative to U251 cells or normal stem cells (mSVZ) ([1]; MTT, 48 hrs): more sensitive
- POH IC50 compared among cell lines [2]: most resistant
- number of spheres formed [3]: decreased the number of spheres
- sensitivity of U251 cells to POH relative to brain endothelial cells (BECs) and astrocytes [4]: more sensitive
- H-ras production (H-Ras [5]): decreased H-ras production
- production of interleukin 8 (IL8) by glioma cells (interleukin 8 (IL8)): inhibited production
- EC50 (cancer stem cells USC-04; FIG. 15A): 300 µM
- duration of disease remission in several patients [6]: ≤ 3 years
- patients achieving 6 month progression-free period [6]: 50%
- side effects from the treatment [6]: almost non-existent
- cytotoxicity in combination with Nelfinavir (NFV) (U251 human glioma cells [7]): at least additive
- cytotoxicity in combination with temozolomide (TMZ) (U251 human glioma cells [8]): at least additive
- cytotoxicity in combination with dimethyl-celecoxib (DMC) [9]: at least additive
- TEER [10]: decreased
- cytotoxicity in combination with temozolomide (TMZ) [11]: also seen
- time after addition of the drugs at which synergistic cell killing occurred (glioma cells; rolipram and POH in combination): 6 h
- glioma invasion (glioma): inhibit glioma invasion
- anti-cancer efficacy [12]: limited
- tolerability ([12]; mainly gastrointestinal side effects): generally poorly tolerated
- level of CHOP ([13]; U251, U87 and A172 cells): up-regulated
- production of VEGF by glioma cells (VEGF): inhibited production
- level of GRP78 ([14]; U251, U87 and A172 cells): up-regulated

SMILES: C=C(C)[C@@H]1CC=C(CO)CC1 [Sigma POH, (S)-perillyl alcohol]
- H-Ras expression (H-Ras [15]): decreased
- K-Ras expression (K-Ras): decreased

SMILES: Cn1nnc2c(C(N)=O)ncn2c1=O [TMZ, temozolomide]
- survival after implantation [16]: up to 8 weeks

SMILES: C=C(C)[C@@H]1CC=C(CO)CC1 [purified POH, (S)-perillyl alcohol]
- cytotoxicity in combination with radiation [17]: synergistic cytotoxicity
- cell killing in combination with radiation (human A172 glioma cells): synergistically
- cytotoxicity in combination with radiation (B16-F1 melanoma cells): synergistic cytotoxicity
- colony formation [18]: efficacy
- cytotoxicity (MTT), cell killing [19]: effective in killing
- cytotoxicity (MTT), cell killing [20]: efficacy
- expression of CHOP [13, 22]: increased expression
- cytotoxicity (MTT), cell killing [21]: effective in killing
- expression of GRP-78 [14, 22]: increased expression

SMILES: COc1ccc(C2CNC(=O)C2)cc1OC1CCCC1 (stereo not shown) [rolipram, reference compound]
- time after addition at which apoptosis occurred (glioma cells; rolipram alone, high concentrations (e.g., 1 mM)): ≥ 48 h
